Results published in US20100261768A1, “Bioavailable Compositions of Amorphous Alpha-(N-Sulfonamido)Acetamide Compound” (Bristol-Myers Squibb Company, priority 2009, published 2010).

Assays:
[1] = bioavailability after particle size reduction; type: in vivo
Procedure: (§1) Unfortunately, (2R)-2-[[(4-chlorophenyl)sulfonyl][[2-fluoro-4-(1,2,4-oxadiazol-3-yl)phenyl]methyl]amino]-5,5,5-trifluoropentanamide has poor aqueous solubility that is often characterized as <1 ug/mL at about room temperature. […] Thus, it now appears that in order to provide optimal exposure of the API, an amorphous (non-crystalline) form of the active compound should be provided.

aqueous solubility = type: physicochemical; conditions: aqueous medium; at about room temperature
Procedure: as §1

[2] = solubility of the compound in PVP-VA; type: physicochemical; conditions: at a temperature of about 100° C.
Procedure: In order to prepare the compositions hereinabove described, various preparation means available to the skilled artisan may be utilized. It is preferred that the compositions containing the active compound and PVP-VA be prepared by the methods of hot-melt extrusion or spray-drying, with hot-melt extrusion being more preferred. A processing temperature of about 150-160° C. is preferred for hot-melt extrusion processing of the active compound using apparatus available in the art.

NC(=O)[C@@H](CCC(F)(F)F)N(Cc1ccc(-c2ncon2)cc1F)S(=O)(=O)c1ccc(Cl)cc1 [(2R)-2-[[(4-chlorophenyl)sulfonyl][[2-fluoro-4-(1,2,4-oxadiazol-3-yl)phenyl]methyl]amino]-5,5,5-trifluoropentanamide]
improvement in bioavailability by particle size reduction [1]: no appreciable improvement | solubility (aqueous solubility): < 1 µg/mL | soluble in PVP-VA [2]: less than 5%
